In US10300071B2, “Compositions and methods for inhibition of mycobacteria” (priority 2014, dated 2019):
≈ marks a conversion by molar mass, not a printed value. Where two headings read alike, the source gives them in different places.

Legend:
[1] = target: Mtb AccD6 (Mycobacterium tuberculosis, UniProt P9WQH5); test: biochemical; format: biochemical
[2] = system: plasma protein; test: Plasma protein binding assay
Description: Protein plasma binding assays were conducted in female mice for each of the arylphenoxypropionate derivatives quizalofop-p, quizalofop-p-ethyl, fenoxaprop-p, and fenoxaprop-p-ethyl.

[3] = Pharmacokinetic studies in mice, plasma concentration after gavage (LC/MS)
[4] = Additional pharmacokinetic studies in rats
[5] = system: Mtb strain mc^2-7000; test: microbe, parasite or virus in culture; format: cell-based, Mycobacterium tuberculosis; conditions: Mycobacterium tuberculosis, 144 h
[6] = mammals, within three days; cited from earlier work
[7] = cited from earlier work
[8] = CPRC; cited from earlier work
[9] = 1-year feeding study, dogs; cited from earlier work
[10] = rat, in vivo
[11] = in vivo; conditions: rat
[12] = system: human fibroblast
[13] = system: S. cerevisiae
[14] = 300 μM malonyl-CoA, inhibitor 10 μM to 2000 μM, read-out: IC50
[15] = 6 days incubation at 37° C., resazurin, read on the 7th day, read-out: MIC
[16] = oral, 1 dose/day x 4 days, canola oil, NZ-331 200 mg/kg, NZ-332 and NZ-369 100 mg/kg

Mtb AccD6, sequence (P9WQH5 whole entry, looked up): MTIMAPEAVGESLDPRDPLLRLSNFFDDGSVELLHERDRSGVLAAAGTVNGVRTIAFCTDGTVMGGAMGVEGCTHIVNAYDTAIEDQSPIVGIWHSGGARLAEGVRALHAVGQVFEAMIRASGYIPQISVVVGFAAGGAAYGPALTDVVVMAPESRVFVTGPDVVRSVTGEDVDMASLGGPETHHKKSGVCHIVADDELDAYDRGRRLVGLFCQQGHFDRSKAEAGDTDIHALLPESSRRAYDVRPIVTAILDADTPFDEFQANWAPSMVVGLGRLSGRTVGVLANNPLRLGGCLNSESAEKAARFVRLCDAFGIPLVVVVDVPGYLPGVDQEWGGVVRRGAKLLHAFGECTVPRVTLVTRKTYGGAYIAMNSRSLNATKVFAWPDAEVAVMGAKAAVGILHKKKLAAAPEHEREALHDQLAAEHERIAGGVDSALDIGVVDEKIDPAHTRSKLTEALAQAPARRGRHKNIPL

C[C@@H](Oc1ccc(Oc2cnc3cc(Cl)ccc3n2)cc1)C(=O)O [quizalofop-p, (2R)-2-{4-[(6-chloroquinoxalin-2-yl)oxy]phenoxy}propanoic acid, reference compound]
IC50 [1]: 800 nM | Percentage of Compound Bound ([2]; mouse plasma): 96.8% | Percentage of Compound Recovered ([2]; mouse plasma): 90% | peak plasma concentration of quizalofop-p ([3]; quizalofop-p-ethyl or quizalofop-p in carboxymethylcellulose or canola oil, gavage 50 mg/kg, 8 hours after gavage): 35

CCOC(=O)[C@@H](C)Oc1ccc(Oc2cnc3cc(Cl)ccc3n2)cc1 [quizalofop-p-ethyl, ethyl (2R)-2-{4-[(6-chloroquinoxalin-2-yl)oxy]phenoxy}propanoate]
time to convert from ester to acid [4]: ~3 h | time of peak (maximum) blood concentration ([4]; oral): six to nine | oral absorption ([4]; oral route): absorbed to a considerable extent by the oral route | IC50 [1, 14]: 2300 nM | MIC [5, 15]: 0.68 to 1.56 µM (≈ 0.254 to 0.582 µg/mL) | share of a single oral dose eliminated in urine [6]: more than 90% | LD50, rabbits [7]: greater than 2,000 mg/kg | carcinogen classification [8]: Group D carcinogen | doses causing zero observed effects [9]: up to 10 mg/kg/day | stability under assay conditions (plasma esterase activity) ([2]; plasma): not stable under assay conditions | concentration of quizalofop-p-ethyl detected at all collection timepoints ([3]; gavage 50 mg/kg): much lower than the concentration of quizalofop-p detected

CCOC(=O)[C@@H](C)Oc1ccc(Oc2nc3ccc(Cl)cc3o2)cc1 [fenoxaprop-p-ethyl, ethyl (2R)-2-{4-[(6-chloro-1,3-benzoxazol-2-yl)oxy]phenoxy}propanoate]
oral absorption [10]: absorbed rapidly | minimum rate of absorption (urinary excretion including cage washes and residues in tissues/organs) ([10]; po): at least 40 % of the administered dose | time at which test substance was already found in the blood ([10]; po): 15 min | time of peak (maximum) blood concentration ([10]; po): 6 to 8 h | MIC [5]: 1.56 µM (≈ 0.564 µg/mL) | half-life ([11]; initial phase): 9 to 11 h | half-life ([11]; terminal phase): 68 to 75 h | stability under assay conditions (plasma esterase activity) [2]: not stable under assay conditions | concentrations at which not toxic, human fibroblast cytotoxicity [12]: ≥ 100 µM

CNC(=O)C(C)c1ccc(Oc2nc3ccc(Cl)cc3s2)cc1 (stereo not shown) [NZ-369, 2-{4-[(6-chloro-1,3-benzothiazol-2-yl)oxy]phenyl}-N-methylpropanamide]
IC50 [1, 14]: 870 nM | MIC [5, 15]: 0.73 to 0.98 µM (≈ 0.253 to 0.34 µg/mL) | concentrations at which not toxic, s. cerevisiae cytotoxicity [13]: ≥ 100 µM | concentrations at which not toxic, human fibroblast cytotoxicity [12]: ≥ 100 µM | Plasma conc. 24 Hrs. after 1st dose [3, 16]: 0.74 (±0.09) μg/ml | Plasma conc. 24 Hrs. after last dose [3, 16]: 0.57 (±0.07) μg/ml | peak plasma concentration (FIG. 10) ([3]; single dose 200 mg/kg, canola oil, gavage, 2 hours after gavage): 27.4 | peak plasma concentration (FIG. 11), 2 hours ([3]; two doses 200 mg/kg 8 hours apart, canola oil, 2 hours after gavage): 27.4

CC(Oc1ccc(Oc2nc3ccc(Cl)cc3o2)cc1)C(=O)O (stereo not shown) [fenoxaprop-p, 2-{4-[(6-chloro-1,3-benzoxazol-2-yl)oxy]phenoxy}propanoic acid, reference compound]
IC50 [1, 14]: 1500 nM | MIC [5, 15]: 25 µM (≈ 8.34 µg/mL) | Percentage of Compound Bound ([2]; female, mouse): 98.58% | Percentage of Compound Recovered ([2]; female, mouse): 76% | concentrations at which not toxic, human fibroblast cytotoxicity [12]: ≥ 100 µM
